These results are taken from patent US7169787B2, “7-azaindoles, use thereof as phosphodiesterase 4 inhibitors and method for producing the same” (Elbion AG, priority 2000, dated 2007).

For one data set, the system named is Lewis Rats. The data set is described as follows: Inhibition of the lipopolysaccharide (LPS)-induced lung neutrophilia. Format: in vivo, rat. As to conditions: 1 mg/kg p.o., 2 h before LPS provocation; BAL 6 h after provocation. As for the experimental part:
The inhibition of pulmonary neutrophil infiltration by the inventive substances is tested on male Lewis Rats (250–350 g). On the day of the experiments, the animals are placed individually in open 1 L Plexiglas boxes, which are connected to a head-nose exposure device. The animals are exposed to an aerosol of a lipopolysaccharide suspension (100 μg LPS/mL of 0.1% hydroxylamine solution) in PBS (LPS provocation). The LPS/hydroxylamine aerosol is nebulized by a nebulizer (Bird Micronebulizer, Palm Springs Calif., USA), which is operated with compressed air (0.2 MPa). The exposure time is 40 minutes, normal controls being nebulized also for 40 minutes with an aerosol of 0.1% hydroxylamine solution in PBS.
Six hours after the LPS provocation, there is a maximum, massive migration of neutrophil granulocytes into the lungs of the animals. At this time, the animals are anesthetized with an excess of ethyl urethane (1.5 g/kg of body weight i.p.) and a bronchoalveolar lavage (BAL) with 3×4 mL of Hank's balance solution is carried out. The total cell count and the number of neutrophil granulocytes of the pooled BAL liquid are subsequently determined with an automatic cell differentiation instrument (Bayer Diagnostics Technicon HIE). For each animal, the neutrophiles (NEUTRO) in the BAL are calculated in millions/animal: NEUTRO/μl×BAL recovery (mL)=NEUTRO/animal.
For each test, 2 control groups were also run (nebulization with 0.1% hydroxylamine solution in PBS and nebulization with 100 μg LPS/mL of 0.1% hydroxylamine solution in PBS).
The percentage inhibition of the neutrophilia of the experimental group, treated with substance, was calculated according to the following formula: {((LPSC−SC)−(LPSD−SC))/(LPSC−SC)}×100%=% inhibition SC=vehicle-treated control group challenged with 0.1% hydroxylamine solution; LPSC=vehicle-treated control group challenged with LPS (100 μg/mL 0.1% hydroxylamine solution); LPSD=substance-treated experimental group challenged with LPS (100 μg/mL 0.1% hydroxylamine solution) […]

In a further data set the target is PDE 4. The data set is described as follows: Inhibition of phosphodiesterase 4 (enzyme preparation from human PMNL, [3H]-cAMP). Type of data set: biochemical. As to conditions: PDE 4 from human PMNL cytosol, 0.5 μM [3H]-cAMP. How it is done: The PDE 4 activity is determined in enzyme preparations from human polymorphonuclear […] (PMNL) and the PDE 2, 3 and 5 activity is determined with PDE from human thrombocytes. Human blood was anti-coagulated with citrate. By centrifuging at 700×g for 20 minutes at room temperature, the thrombocyte-rich plasma in the supernatant is separated from the erythrocytes and leukocytes. The thrombocytes are lysed by ultrasound and used in the PDE 3 and PDE 5 assays. For the determination of the PDE 2 activity, the cytosolic thrombocyte fraction is purified on an anionic exchange column by means of NaCl gradients and the PDE 2 peak is obtained for the assay. The PMNLs for the PDE 4 determination are isolated by a subsequent dextran sedimentation, followed by a gradient centrifugation with Ficoll-Paque. After the cells have been washed twice, the erythrocytes, still contained, are lysed within 6 minutes at 4° C. by the addition of 10 mL of hypotonic buffer (155 mM of NH4Cl, 10 mM of NaHCO3, 0.1 mM of EDTA, pH=7.4). The PMNLs, which are still intact, are washed twice with PBS and lysed with ultrasound. The supernatant of a one-hour centrifugation at 4° C. at 48,000×g contains the cytosolic fraction of the PDE 4 and is used for the PDE 4 measurements.
The phosphodiesterase activity is determined using the method described by Thompson et al. with some modifications (Thompson, W. J. and M. M. Appleman, Assay of cyclic nucleotide phosphodiesterase and resolution of multiple molecular forms of the enzyme, Adv. Cycl. Nucl. Res. 1979, 10, 69–92).
The reaction mixtures contain 50 mM of tris hydrochloride (pH 7.4), 5 mM of magnesium chloride, the inhibitors in various concentrations, the corresponding enzyme preparation as well as the further components necessary for determining the individual isoenzymes (see below). The reaction is started by the addition of the substrate, 0.5 μM of [^3H]-cAMP or [^3H]-cGMP (approximately 6000 CPM per test). The final volume is […]. Test substances are mixed as stock solutions in DMSO. The DMSO concentration in the reaction mixture is 1% v/v. The PDE activity is not affected by this concentration of DMSO. After the reaction is started by the addition of substrate, samples are incubated for 30 minutes at 37° C. The reaction is stopped by heating the test tubes for 2 minutes at 110° C. The samples remain for a further 10 minutes in ice. The addition of 30 μL of 5′-nucleotidase (1 mg/mL, from a poisonous snake suspension from Crotalus adamanteus) is followed by a 10-minutes incubation at 37° C. The samples are stopped on ice, in each case 400 μL of a mixture of Dowex, water and ethanol (1+1+1) is added, mixed well and incubated once again for 15 minutes on ice. The reaction vessels are centrifuged for 20 minutes at 3000×g. Aliquots of the supernatant (200 μL) are transferred directly to scintillation vessels. After the addition of 3 mL of scintillator, the samples are measured in the beta counter.
[^3H]-cAMP is used as substrate for the determination of the PDE 4, 3 and 2 activity and [^3H]-cGMP is used as substrate for the determination of the PDE 5 activity. The enzyme activities, which are nonspecific in each case, are determined in the presence of 100 μM of Rolipram for the determination of PDE 4 and in the presence of 100 μM of IBMX for the determination of the PDE 3 and 5 and subtracted from the test values. The incubation formulations of the PDE 3 assays contained 10 μM of Rolipram, in order to inhibit possible contaminations by PDE 4. The PDE 2 is tested with an SPA assay of the Amersham Company. The assay is carried out in the presence of the activator of the PDE 2 (5 μM of cGMP).

What is called melting point is the temperature, or range, at which the solid turns liquid. For orientation: IC50 means the concentration needed to halve the response being measured.

In the case of `Cc1ccc(Cn2cc(C(=O)C(=O)Nc3c(Cl)cncc3Cl)c3cccnc32)cc1` [Example 22], the melting point is 176 to 178 °C. For the same compound, in the data set on Lewis Rats, the “Inhibition of neutrophilia (table titled Inhibition of Eosinophilia)” value is 64%. At PDE 4, this compound returned an IC50 of 2 nM.
